According to ChEMBL document CHEMBL4130428, “Recent advances in polysaccharides for osteoarthritis therapy” (2017):

Experiments:
Homo sapiens [1] = experiment: Anti-osteoarthritis activity in knee osteoarthritis patient assessed as cartilage volume in medial area dosed orally for 2 consecutive years by MRI method relative to control; type: functional
Homo sapiens [2] = experiment: Anti-osteoarthritis activity in knee osteoarthritis patient assessed as cartilage volume in medial condylar area dosed orally for 2 consecutive years by MRI method relative to control; type: functional

Cc1ccc(-c2cc(C(F)(F)F)nn2-c2ccc(S(N)(=O)=O)cc2)cc1 [CELECOXIB]
inhibition (INH) (Homo sapiens [1]): 8.1%
inhibition (INH) (Homo sapiens [2]): 7.7%
